Measured values reported in publication PMC9925730, “Controlled sequential in situ self-assembly and disassembly of a fluorogenic cisplatin prodrug for cancer theranostics” (Nature Communications, 2023).
Where “and” joins values, the source holds several entries; their conditions need not be identical. Identical values can stand only once.

How the values were obtained:
[1] = Urine and faeces analysis by ICP-OES (Pt element); assay type: in vivo, mice; design: Pt in urine / Pt in feces: unit not given beside the values; settings: for Pt in urine: Fig.6g
[2] = Urine and faeces analysis by ICP-OES (Pt element); assay type: in vivo, mice; design: Pt in urine / Pt in feces: unit not given beside the values; settings: for Pt accumulatively cleared (urine + faeces): during 12 h
Method: page 47: determined using ELISA kits according to manufacturer 's protocol. Determination of the blood circulation half-life. […], or CDDP (at a dose of 2.25 mg kg-1 Pt) was i.v. injected into healthy female BALB/c nude mice (6-8 weeks old). […] The collected blood was digested with concentrated HNO3 (65-70%, 2 mL) and HCl (36~38%, 1 mL) at 90 °C overnight. The residues were then diluted with 5 mL 2% HNO3 and 5% HCl solution, and the concentrations of Pt element were determined by ICP-OES, which were further applied to calculate the contents of Pt element in the blood. The plot of the percentage of Pt element remained in the blood versus injection time to yield the pharmacokinetic time. Urine and Faeces analysis. […] Urine and faeces were collected at 2 (for 0-2 h), 4 (for 2-4 h), 8 (for 4- 8 h) and 12 h (for […]), which were diluted in methanol and centrifuged at 3,600 × g for 10 min, followed by filtering via a 0.22 μm syringe filter. The solutions were analyzed by HPLC (660 nm detection) to characterize all the mCy-containing compounds. Using the established standard curves for […] Cy-COOH, the amount of each compound in the urine and faeces could be calculated, which were further applied to determine the percentage of them in the urine and faeces. The data were summarized in Supplementary Tables 5-8. […] Urine and faeces were collected and weighed. The urine and faeces were digested with concentrated HNO3 (65~70%) and HCl (36~38%) at 90 °C for 24 h. The solution was diluted to 5 mL 2% HNO3 and 5% HCl solution, and the concentration of Pt element was measured by ICP-OES, which was further applied to calculate the percentage of Pt in corresponding urine and faeces. The data were summarized in Supplementary Tables 9 and 10. 47

[3] = General design summary of signals and cytotoxicity (Fig. 1a)
From the text: P-CyPt is designed to (1) offer activatable near-infrared (NIR) FL and PA signals for bimodality imaging through ALP-mediated in situ self-assembly and (2) release CDDP for on-demand therapy via GSH-triggered disassembly (Fig. 1a). […] After systemic administration, P-CyPt as a small molecule can extravasate and penetrate deeply into tumor tissues (Fig. 1b). In tumor tissues that are membrane-bound ALP positive, rapid dephosphorylation of P-CyPt by the membrane-bound ALP generates CyPt, switching on NIR FL (λem = 710 nm) and PA signals (λ = 700 nm); moreover, CyPt with increased hydrophobicity is susceptible to self-assembly into Pt(IV) nanoparticles (Pt^IVNPs), which turns on another PA signal (λ = 750 nm) resulting from the aggregation-caused bathochromic shift. The on-site formed Pt^IVNPs can anchor on the cell membranes, which attenuate diffusion, prolong retention, and enhance translocation into cells[32],[33]. Within tumor cells, the abundant endogenous GSH can reduce Pt(IV) into Pt(II), producing negatively charged Cy-COOH that promotes NPs disassembly and accelerates release of CDDP intracellularly. This process dramatically raises intracellular CDDP’s concentration while depletes GSH’s level to effectively kill tumor cells. Moreover, the disassembly of Pt^IVNPs into Cy-COOH further increases NIR FL (called as “ON-ON”) as the aggregation-caused quenching (ACQ) effect is eliminated; however, the PA signal at 750 nm is turned off but the PA signal at 700 nm is kept at “ON” state. The sequential switches in NIR FL and PA bimodal imaging signals can allow P-CyPt to reliably monitor the ALP-triggered in situ self-assembly and GSH-driven disassembly process in vivo, facilitating to guide precise chemotherapy of tumors.

[4] = i.v. 2.25 mg kg-1 Pt, 0-2 h, ICP-OES
[5] = feces collected 8-12 h, mouse-2
[6] = feces collected 8-12 h, mouse-1
[7] = feces collected 8-12 h, mouse-3
[8] = urine collected 0-2 h, mean of 3 mice
[9] = urine collected 2-4 h, mean of 3 mice
[10] = urine collected 4-8 h, mean of 3 mice
[11] = urine collected 8-12 h, mean of 3 mice
[12] = urine collected 8-12 h, mouse-1
[13] = urine collected 8-12 h, mouse-2
[14] = urine collected 8-12 h, mouse-3

CC1(C)C(/C=C/C2=C3Oc4cc(O)c(Cl)cc4C=C3CCC2)=[N+](CCCNC(=O)[C@@H](Cc2ccccc2)NC(=O)[C@@H](Cc2ccccc2)NC(=O)CCC(=O)[O][Pt]([NH2])([NH2])([OH])([Cl])[Cl])c2ccccc21 [CyPt]
Percentage of Pt element excreted to the faeces ([1]; 8-12 h): 3.69 ± 0.77% | Percentage of Pt element excreted to the faeces ([2]; 2-4 h): 16.51 ± 1.34% | Percentage of Pt element excreted to the faeces ([2]; 4-8 h): 21.52 ± 1.73% | Percentage of Pt element excreted to the faeces [2, 4]: 0.63 ± 0.21% | Cytotoxicity [3]: Low | FL at 710 nm [3]: High | PA at 700 nm [3]: High | PA at 750 nm [3]: Low

CC1(C)C(/C=C/C2=C3Oc4cc(OP(=O)(O)O)c(Cl)cc4C=C3CCC2)=[N+](CCCNC(=O)[C@@H](Cc2ccccc2)NC(=O)[C@@H](Cc2ccccc2)NC(=O)CCC(=O)[O][Pt]([NH2])([NH2])([OH])([Cl])[Cl])c2ccccc21 [P-CyPt]
Percentage of Pt element excreted to the faeces ([1]; 8-12 h): 4.40 ± 0.52% | Pt in urine ([1]; 8-12 h, single mice): 3.228 and 4.327 and 2.669 | Pt in feces ([1]; Fig.6h, 8-12 h, single mice): 4.215 and 4.995 and 4.002 | Pt in feces [1, 5]: 4.995 | Percentage of Pt element excreted to the faeces ([2]; 2-4 h): 5.92 ± 0.64% | Percentage of Pt element excreted to the urine ([2]; 2-4 h): 13.38 ± 1.45% | Percentage of Pt element excreted to the faeces ([2]; 4-8 h): 16.94 ± 1.87% | Percentage of Pt element excreted to the urine ([2]; 4-8 h): 9.24 ± 1.49% | Percentage of Pt element excreted to the urine ([2]; 8-12 h): 3.41 ± 0.84% | Pt in urine ([2]; Fig.6g, 0-2 h, mean of 3 mice): 15.772 | Pt in urine ([2]; Fig.6g, 0-2 h, single mice): 15.461 and 17.665 and 14.190 | Pt in urine ([2]; Fig.6g, 2-4 h, mean of 3 mice): 13.380 | Pt in urine ([2]; Fig.6g, 2-4 h, single mice): 13.090 and 14.953 and 12.095 | Pt in urine ([2]; Fig.6g, 4-8 h, mean of 3 mice): 9.236 | Pt in urine ([2]; Fig.6g, 4-8 h, single mice): 9.456 and 10.608 and 7.644 | Pt in urine ([2]; Fig.6g, 8-12 h, mean of 3 mice): 3.408 | Pt in feces ([2]; Fig.6h, 0-2 h, mean of 3 mice): 0.386 | Pt in feces ([2]; Fig.6h, 0-2 h, single mice): 0.346 and 0.489 and 0.323 | Pt in feces ([2]; Fig.6h, 2-4 h, mean of 3 mice): 5.927 | Pt in feces ([2]; Fig.6h, 2-4 h, single mice): 5.543 and 6.667 and 5.573 | Pt in feces ([2]; Fig.6h, 4-8 h, mean of 3 mice): 16.944 | Pt in feces ([2]; Fig.6h, 4-8 h, single mice): 16.548 and 18.982 and 15.301 | Pt in feces ([2]; Fig.6h, 8-12 h, mean of 3 mice): 4.404 | Pt accumulatively cleared (urine + faeces) [2]: ~ 69.4% | Pt in feces ([2]; feces collected 0-2 h, mouse-1): 0.346 | Pt in feces ([2]; feces collected 0-2 h, mouse-2): 0.489 | Pt in feces ([2]; feces collected 0-2 h, mouse-3): 0.323 | Pt in feces ([2]; feces collected 2-4 h, mouse-1): 5.543 | Pt in feces ([2]; feces collected 2-4 h, mouse-2): 6.667 | Pt in feces ([2]; feces collected 2-4 h, mouse-3): 5.573 | Pt in feces ([2]; feces collected 4-8 h, mouse-1): 16.548 | Pt in feces ([2]; feces collected 4-8 h, mouse-2): 18.982 | Pt in feces ([2]; feces collected 4-8 h, mouse-3): 15.301 | Pt in feces [2, 6]: 4.215 | Pt in feces [2, 7]: 4.002 | Percentage of Pt element excreted to the faeces [2, 4]: 0.38 ± 0.090% | Percentage of Pt element excreted to the urine [2, 4]: 15.78 ± 1.76% | Pt in urine, mean [2, 8]: 15.772 | Pt in urine ([2]; urine collected 0-2 h, mouse-1): 15.461 | Pt in urine ([2]; urine collected 0-2 h, mouse-2): 17.665 | Pt in urine ([2]; urine collected 0-2 h, mouse-3): 14.190 | Pt in urine, mean [2, 9]: 13.380 | Pt in urine ([2]; urine collected 2-4 h, mouse-1): 13.090 | Pt in urine ([2]; urine collected 2-4 h, mouse-2): 14.953 | Pt in urine ([2]; urine collected 2-4 h, mouse-3): 12.095 | Pt in urine, mean [2, 10]: 9.236 | Pt in urine ([2]; urine collected 4-8 h, mouse-1): 9.456 | Pt in urine ([2]; urine collected 4-8 h, mouse-2): 10.608 | Pt in urine ([2]; urine collected 4-8 h, mouse-3): 7.644 | Pt in urine, mean [2, 11]: 3.408 | Pt in urine [2, 12]: 3.228 | Pt in urine [2, 13]: 4.327 | Pt in urine [2, 14]: 2.669 | Cytotoxicity [3]: Low | FL at 710 nm [3]: Low | PA at 700 nm [3]: Low | PA at 750 nm [3]: Low

[NH2][Pt]([NH2])([Cl])[Cl] [CDDP, cisplatin]
Percentage of Pt element excreted to the faeces ([1]; 8-12 h): 2.70 ± 0.44% | Pt in urine ([1]; 8-12 h, single mice): 3.482 and 4.062 and 2.903 | Pt in feces ([1]; Fig.6h, 8-12 h, single mice): 2.646 and 3.172 and 2.294 | Pt in feces [1, 5]: 3.172 | Percentage of Pt element excreted to the faeces ([2]; 2-4 h): 2.60 ± 0.45% | Percentage of Pt element excreted to the urine ([2]; 2-4 h): 10.94 ± 1.14% | Percentage of Pt element excreted to the faeces ([2]; 4-8 h): 4.55 ± 0.60% | Percentage of Pt element excreted to the urine ([2]; 4-8 h): 5.45 ± 0.94% | Percentage of Pt element excreted to the urine ([2]; 8-12 h): 3.48 ± 0.58% | Pt in urine ([2]; Fig.6g, 0-2 h, mean of 3 mice): 15.456 | Pt in urine ([2]; Fig.6g, 0-2 h, single mice): 14.877 and 18.189 and 13.302 | Pt in urine ([2]; Fig.6g, 2-4 h, mean of 3 mice): 10.936 | Pt in urine ([2]; Fig.6g, 2-4 h, single mice): 10.576 and 12.209 and 10.023 | Pt in urine ([2]; Fig.6g, 4-8 h, mean of 3 mice): 5.452 | Pt in urine ([2]; Fig.6g, 4-8 h, single mice): 5.332 and 6.452 and 4.572 | Pt in urine ([2]; Fig.6g, 8-12 h, mean of 3 mice): 3.482 | Pt in feces ([2]; Fig.6h, 0-2 h, mean of 3 mice): 0.193 | Pt in feces ([2]; Fig.6h, 0-2 h, single mice): 0.190 and 0.242 and 0.148 | Pt in feces ([2]; Fig.6h, 2-4 h, mean of 3 mice): 2.596 | Pt in feces ([2]; Fig.6h, 2-4 h, single mice): 2.468 and 3.099 and 2.222 | Pt in feces ([2]; Fig.6h, 4-8 h, mean of 3 mice): 4.548 | Pt in feces ([2]; Fig.6h, 4-8 h, single mice): 4.452 and 5.187 and 4.005 | Pt in feces ([2]; Fig.6h, 8-12 h, mean of 3 mice): 2.704 | Pt accumulatively cleared (urine + faeces) [2]: ~ 45.3% | Pt in feces ([2]; feces collected 0-2 h, mouse-1): 0.190 | Pt in feces ([2]; feces collected 0-2 h, mouse-2): 0.242 | Pt in feces ([2]; feces collected 0-2 h, mouse-3): 0.148 | Pt in feces ([2]; feces collected 2-4 h, mouse-1): 2.468 | Pt in feces ([2]; feces collected 2-4 h, mouse-2): 3.099 | Pt in feces ([2]; feces collected 2-4 h, mouse-3): 2.222 | Pt in feces ([2]; feces collected 4-8 h, mouse-1): 4.452 | Pt in feces ([2]; feces collected 4-8 h, mouse-2): 5.187 | Pt in feces ([2]; feces collected 4-8 h, mouse-3): 4.005 | Pt in feces [2, 6]: 2.646 | Pt in feces [2, 7]: 2.294 | Percentage of Pt element excreted to the faeces [2, 4]: 0.19 ± 0.046% | Percentage of Pt element excreted to the urine [2, 4]: 15.46 ± 2.49% | Pt in urine, mean [2, 8]: 15.456 | Pt in urine ([2]; urine collected 0-2 h, mouse-1): 14.877 | Pt in urine ([2]; urine collected 0-2 h, mouse-2): 18.189 | Pt in urine ([2]; urine collected 0-2 h, mouse-3): 13.302 | Pt in urine, mean [2, 9]: 10.936 | Pt in urine ([2]; urine collected 2-4 h, mouse-1): 10.576 | Pt in urine ([2]; urine collected 2-4 h, mouse-2): 12.209 | Pt in urine ([2]; urine collected 2-4 h, mouse-3): 10.023 | Pt in urine, mean [2, 10]: 5.452 | Pt in urine ([2]; urine collected 4-8 h, mouse-1): 5.332 | Pt in urine ([2]; urine collected 4-8 h, mouse-2): 6.452 | Pt in urine ([2]; urine collected 4-8 h, mouse-3): 4.572 | Pt in urine, mean [2, 11]: 3.482 | Pt in urine [2, 12]: 3.482 | Pt in urine [2, 13]: 4.062 | Pt in urine [2, 14]: 2.903 | Cytotoxicity [3]: High
